Measured values: US20090176696A1, “Methods And Compositions For Modulating An Immune Response” (priority 2006, published 2009)
Entries after “also recorded” stand apart in the source; their conditions may differ.

What was measured:
[1] = system: Bone marrow-derived dendritic cells (BMDCs); assay: Cytokine production (ELISA) by BMDCs pre-treated with TCT, then stimulated with TLR agonists; format: cell-based, BALB/c mice
Protocol: Bone marrow-derived dendritic cells (BMDCs) from BALB/c mice were pre-treated with TCT (10 μg/ml) for 1, 6 and 12 hours before being stimulated with a range of concentrations of the TLR2 agonist, Pam-3Csk (10, 100, 1000 ng/ml), the TLR4 agonist, B. pertussis LPS (100, 1000, 10,000 pg/ml) and the TLR9 agonist, CpG (10, 100, 1000 ng/ml) for a further 12 hours. The concentration range chosen for each TLR agonist was based on preliminary experiments. Cytokine and chemokine concentrations were evaluated by ELISA.

[2] = system: KLH-specific T cell and antibody responses; assay: TCT injection 6 hours before immunisation with KLH or KLH with alum; ex vivo spleen and lymph node responses and antibody titres; format: in vivo, BALB/c mice
Protocol: Cohorts of BALB/c mice were injected sub-cutaneously (s.c.) into the flank with PBS or TCT alone, and then immunised sub-cutaneously with KLH or KLH with alum 6 hours later. The adaptive immune response was assessed 14 days later by stimulating spleen and local inguinal lymph node cells with antigen ex vivo. Spleen (FIG. 6A) and lymph node (FIG. 6B) cell suspensions were cultured in the presence of various concentrations of KLH (2, 10, 50 μg/ml) and PMA/anti-CD3 or medium were used as positive and negative controls respectively. Supernatants were collected 72 hours later, fresh medium was added to the wells and cells were incubated overnight. At day 4, 2 μCi of ^3H thymidine was added to each well. Plates were incubated for a further 6 hours, and ^3H incorporation was determined.
In addition, supernatants were tested for IFN-gamma, IL-10, IL-4 and IL-5 by ELISA (spleen—FIG. 7 and lymph nodes—FIG. 8). KLH-specific antibody titres were also determined by ELISA (FIG. 9).

[3] = system: KLH-specific T cell and antibody responses; assay: TCT injection 6 hours before immunisation with KLH and E. coli heat labile enterotoxin (LT); ex vivo lymph node responses and antibody titres; format: in vivo, BALB/c mice
Protocol: Groups of 5 BALB/c mice were injected subcutaneously into the flank with PBS or TCT (10 μg/mouse) and then immunised with KLH (20 μg/mouse) or KLH with E. coli heat labile enterotoxin (LT) (100 ng/mouse) 6 hours later. The T cell response was assessed 14 days later from local inguinal lymph node cells stimulated with antigen ex vivo.
Lymph node (FIG. 10) cell suspensions were cultured in the presence of various concentrations of KLH (2, 10, 50 μg/ml) and PMA/CD3 or medium were used as positive and negative controls respectively. Supernatants were collected 72 hours later. Concentrations of IFN-gamma, IL-10, IL-4 and IL-5 in supernatants were evaluated by ELISA (FIG. 10). KLH-specific antibody titres were also determined by ELISA (FIG. 11). Results are the mean responses (±SD) for 5 mice assessed individually in triplicate.

[4] = system: Experimental autoimmune encephalomyelitis (EAE); assay: Experimental autoimmune encephalomyelitis (EAE) induced with MOG peptide 35-55 in CFA; format: in vivo, C57BL/6 mice
Protocol: EAE was induced in C57BL/6 mice by subcutaneous immunisation with 150 μg MOG peptide 35-55 emulsified in CFA supplemented with 5 mg/ml of killed Mycobacterium tuberculosis. Mice were injected intraperitoneally (i.p) with 500 ng of pertussis toxin (PT) on days 0 and 2. Mice were injected with either PBS or TCT (10 μg/mouse) s.c in the flank on day 1 post EAE induction and every 3-4 days thereafter (FIG. 15). Mice were observed daily for signs of clinical disease. Disease severity was recorded as follows: grade 0, normal; grade 1, limp tail; grade 2, wobbly gait; grade 3, hind limb weakness; grade 4, hind limb paralysis and grade 5, tetraparalysis/death.

[5] = system: Graft-versus-host disease (GVHD); assay: Parent-to-F1 hybrid graft-versus-host disease (GVHD) model; format: in vivo, BALB/c×C57Bl/6 F1 hybrid mice; conditions: TCT 10 μg/mouse s.c. footpad 2 hours prior to induction; day 7
Source text: Graft-versus-host disease (GVHD) is a major life-threatening complication of bone marrow transplantation, where T cells from the donor graft attack host cells leading to a condition that is only treatable using potent immunosuppressive drugs. It is possible to examine the potential of therapies for the prevention or treatment of GVHD in humans by testing their efficacy using a simple GVHD model in mice. The parent-to-F1 hybrid GVHD murine model involves the transfer of parental lymphocytes into non-conditioned F1 hybrid mice. Using this strain combination the host T cells cannot actively resist the donor cells.
GVHD was induced by transfer of 0.5×10^7 spleen cells from donor C57BL/6 mice into the footpads of BALB/c×C57Bl/6 F1 hybrid mice. Recipient mice were injected s.c into the footpad with PBS or TCT (10 μg/mouse) 2 hours prior to induction of GVHD. After 7 days, the popliteal lymph nodes were removed, weighed and cell numbers were recorded.

[6] = TCT 10 μg/ml for 1, 6, 12 hours, Pam-3Csk 10, 100, 1000 ng/ml for 12 hours
[7] = TCT 10 μg/ml pre-treatment (particularly 1 hour), Pam-3Csk, B. pertussis LPS, CpG for 12 hours
[8] = TCT 6 hours before KLH and alum
[9] = TCT 6 hours before KLH only or KLH and alum
[10] = TCT 6 hours before alum adsorbed KLH, day 14
[11] = TCT 6 hours before immunisation KLH
[12] = TCT 10 μg/mouse 6 hours before KLH and LT
[13] = TCT 10 μg/mouse 6 hours before KLH with LT

Structure (SMILES): CC(=O)NC1C(OC2C3COC(O3)C(NC(C)=O)C2OC(C)C(=O)NC(C)C(=O)NC(CCC(=O)NC(CCCC(N)C(=O)NC(C)C(=O)O)C(=O)O)C(=O)O)OC(CO)C(O)C1O (stereo not drawn) [TCT, N-acetylglucosaminyl-1,6-anhydro-N-acetylmuramylalanyl-γ-glutamyldiaminopimelylalanine]
- IL-10 production by B. pertussis LPS ([1]; LPS 10,000 pg/ml, TCT pre-treatment 1 and 6 hours): significant enhancement
- IL-10 production in response to the TLR-9 agonist CpG ([1]; TCT 10 μg/ml for 1, 6, 12 hours, CpG 10, 100, 1000 ng/ml for 12 hours): enhances
- IL-6 production in response to the TLR-4 agonist B. pertussis LPS ([1]; TCT 10 μg/ml for 1, 6, 12 hours, LPS 100, 1000, 10000 pg/ml for 12 hours): enhances
- IL-6 production in response to the TLR-2 agonist Pam-3Csk [1, 6]: enhances
- IL-10 production in response to the TLR-2 agonist Pam-3Csk [1, 6]: enhances
- IL-6 production by all the TLR agonists examined [1, 7]: significantly enhanced
- IL-10 production by all the TLR agonists examined [1, 7]: significantly enhanced
- IL-12p40 production induced by LPS ([1]; TCT 10 μg/ml pre-treatment, B. pertussis LPS): significantly reduced
- IL-12p40 production induced by Pam-3Csk ([1]; TCT 10 μg/ml pre-treatment, Pam-3Csk): significantly reduced
- production of cytokines and chemokines examined ([1]; TCT alone (10 μg/ml), no TLR agonist): did not induce
- IFN-gamma production, spleen cells [2, 8]: reduced
- IL-4 production, spleen cells [2, 8]: reduced
- IL-5 production, spleen cells [2, 8]: reduced
- KLH-specific IL-10 production by lymph node cells [2, 8]: severely impaired; also recorded: attenuated
- KLH-specific IL-10 production by spleen cells ([2]; TCT 6 hours before KLH and alum, p<0.001): significant reduction
- antigen-specific IgG1 titres [2, 9]: no significant effect
- antigen-specific IgG2a titres [2, 9]: no significant effect
- total KLH-specific IgG production [2, 9]: no significant effect
- proliferation response to KLH, lymph node cells [2, 10]: reduction
- proliferation response to KLH, spleen cells [2, 10]: reduction
- Antigen-specific IL-5 production, lymph node cells [2, 11]: reduced
- antigen-specific IL-4 production, lymph node cells [2, 11]: reduced
- IFN-gamma production, spleen cells ([2]; TCT before immunisation with KLH and PBS): reduced
- proliferation response, spleen cells ([2]; mice immunised with KLH and PBS): reduced
- antigen-specific IFN-gamma, lymph node cells ([2]; mice immunised with KLH and alum): abrogated
- antigen-specific IFN-gamma production by lymph node cells [3, 12]: significantly impaired
- antigen-specific IL-4 production by lymph node cells [3, 12]: significantly impaired
- KLH-specific IL-5 production, lymph node cells [3, 13]: reduction
- KLH-specific IL-10 production, lymph node cells [3, 13]: reduction
- antigen-specific IgG1 titres ([3]; TCT 6 hours before LT and KLH): no effect
- antigen-specific IgG2a titres ([3]; TCT 6 hours before LT and KLH): no effect
- total KLH-specific IgG production ([3]; TCT 6 hours before LT and KLH): no effect
- first clinical signs of disease post induction ([4]; TCT 10 μg/mouse s.c. day 1 and every 3-4 days, untreated mice 12 days): 18 days
- severity of disease ([4]; TCT 10 μg/mouse s.c., versus untreated control mice): lower than that observed in the untreated control mice
- total cells counts in the lymph node of the recipient mice [5]: significantly reduced
- weight of the lymph node of the recipient mice [5]: significantly reduced
